“And” between values parts separate entries of the source, which are not always exact repeats. Equal values may be shown once. ± gives the expanded uncertainty stated by the source.
Conditions: 313.15 K; Liquid

Structure (SMILES)	vapor or sublimation pressure
CC(C)OC(C)C [diisopropyl ether]	37.1 ± 0.27 kPa and 37.14 ± 0.27 kPa and 37.12 ± 0.27 kPa
CCC(C)O (stereo not drawn) [butan-2-ol]	6.062 ± 0.069 kPa [middle of 4 runs]
c1ccccc1 [benzene]	24.39 ± 0.18 kPa and 24.38 ± 0.18 kPa and 24.4 ± 0.18 kPa
